Laboratory results from publication PMC9203742 (Nature Communications, 2022).
Several values for one entry are separate records, joined by “and”; a condition that tells them apart may be missing. Equal entries are not always repeated.

Assays:
[1] = system: Purkinje cells in cerebellar slices from mGlu1^CBC/CBC mice; experiment: chemLTD recording (PF-EPSC) in Purkinje cells of acute cerebellar slices, mGlu1^CBC/CBC mice; format: cell-based, mouse; conditions: for PF-EPSC amplitude relative to time 0: mGlu1CBC/CBC, individual cells
Procedure: Sagittal cerebellar slices were cut with a microslicer (Linear slicer Pro7; DOSAKA EM) in cutting solution buffer and then incubated in ACSF gassed with 5% CO2 and 95% O2 at room temperature.
Whole-cell patch-clamp recordings were made from visually identified Purkinje cells using a 60× water-immersion objective attached to an upright microscope (BX51WI, Olympus) at room temperature, as described previously. […] Picrotoxin (100 µM; Sigma) was always added to the saline to block inhibitory synaptic transmission.
To evoke EPSCs derived from CF (CF-EPSCs) and PF (PF-EPSCs) inputs onto Purkinje cells, square pulses were applied through a stimulating electrode placed on the granular layer and the molecular layer (50 µm away from the pial surface), respectively. The selective stimulation of CFs and PFs was confirmed by the paired-pulse depression (PPD) and paired-pulse facilitation (PPF) of EPSC amplitudes at a 50-ms interstimulus interval (ISI), respectively.
For the LTD sessions, PF-EPSCs were recorded successively at a frequency of 0.1 Hz from Purkinje cells clamped at –80 mV. After a stable PF-EPSC amplitude had been observed for at least 5 min, a conjunctive stimulation that consisted of 30 single PF stimuli together with a 200 ms depolarizing pulse from a holding potential of –60 to +20 mV was applied for LTD induction.
To chemically induce LTD (chemLTD), 50 µM (S)-3,5-dihydroxyphenylglycine (DHPG) or 1 µM Pd(sulfo-bpy) was applied for 10 min in a current-clamp mode. We often observed a transient decrease in PF-EPSC amplitude after the application of each drug probably because Purkinje cells under current-clamp conditions excite spontaneously to suppress presynaptic function through the retrograde signaling. Access resistances were monitored every 10 s by measuring the peak currents in response to 2 mV, 50-ms hyperpolarizing steps throughout the experiments; the measurements were discarded if the resistance changed by >20% of its original value. The normalized EPSC amplitude on the ordinate represents the EPSC amplitude for the average of six traces for 1 min divided by that of the average of six traces for 1 min immediately before the conjunctive stimulation or the drug application.

[2] = system: GFP-positive Purkinje cells infected with AAV-L7-mGlu1^CBC; experiment: chemLTD recording in GFP-positive Purkinje cells, slices infected with AAV-L7-mGlu1^CBC; format: cell-based, mouse; conditions: for PF-EPSC amplitude normalized to time 0, individual Purkinje cells / PF-EPSC amplitude normalized to time 0, mean of cells: AAV-L7-mGlu1CBC
[3] = system: MLIs surrounded by mGlu1(N264H)-expressing Purkinje cells (AAV-L7-mGlu1^CBC); experiment: sAP-mediated currents (firing rate) of MLIs in slices infected with AAV-L7-mGlu1^CBC; format: cell-based, mouse; conditions: 10 μM Pd(sulfo-bpy); P = 0.293
Procedure: To monitor the excitability of MLIs, sAP-mediated current responses were extracellulary recorded by a loose cell-attached voltage-clamp at a holding potential of 0 mV. Glass electrodes used for cell-attached recordings had resistances of 3–5 MΩ when filled with ACSF. The current recordings from AAV-infected cells were performed 1−2 weeks after infection. The EPSCs and sAP-mediated currents were recorded using an Axopatch 200B amplifier (Molecular Devices), and the pClamp system (version 9.2; Molecular Devices) was used for data acquisition and analysis. The signals were filtered at 1 kHz and digitized at 4 kHz for the evoked EPSCs and 10 kHz for the sAP-mediated currents.
Injection of viral solutions was performed as described previously with slight modifications. Briefly, under deep anesthesia, with an intraperitoneal injection of medetomidine (0.3 mg/kg), midazolam (4.0 mg/kg), and butorphanol (5.0 mg/kg), 4 µL of the solutions containing AAV mixture were directly injected into the vermis of cerebellar lobules V-VIII (200-300 µm in depth, 12 µL/h in rate) of WT mice (C57BL/6J, P20-P30) using glass pipette (30–40 µm in diameter) and microinjector (Nanoliter; World Precision Instruments). In all, 1−2 week after injection, the mice were used for each experiment.

[4] = Solubility of Pd complexes in ACSF by UV-vis spectroscopy; conditions: 1 h at 4 °C

Cc1ccnc(-c2cc(COCCCS(=O)(=O)[O-])ccn2)c1.[Cl][Pd][Cl].[Na+] [Pd(sulfo-bpy)]
chemLTD: normalized PF-EPSC amplitude ([1]; 1 μM Pd(sulfo-bpy) for 10 min, t = 31−35 min): 71 ± 5%
PF-EPSC amplitude relative to time 0 ([1]; time 11 min): 0.6364 and 0.5841 and 0.6893 and 0.9073 and 0.8328 and 0.7699 and 0.718 and 0.7562 and 0.9988 and 0.8349 and 0.5757
PF-EPSC amplitude relative to time 0 ([1]; time 12 min): 0.827 and 0.5867 and 0.7148 and 0.9371 and 0.7788 and 0.6794 and 0.7449 and 0.7226 and 1.01 and 0.7931 and 0.6087
PF-EPSC amplitude relative to time 0 ([1]; time 13 min): 0.8172 and 0.6851 and 0.7171 and 1.091 and 0.7809 and 0.6502 and 0.6746 and 0.5919 and 1.019 and 0.8421 and 0.5537
PF-EPSC amplitude relative to time 0 ([1]; time 14 min): 0.7882 and 0.6733 and 0.6788 and 1.041 and 0.7381 and 0.6557 and 0.5543 and 0.7541 and 0.9808 and 0.752 and 0.5358
PF-EPSC amplitude relative to time 0 ([1]; time 15 min): 0.7548 and 0.7484 and 0.6382 and 0.9601 and 0.7893 and 0.6974 and 0.5323 and 0.7206 and 0.9958 and 0.7333 and 0.563
PF-EPSC amplitude relative to time 0 ([1]; time 16 min): 0.7642 and 0.6145 and 0.7007 and 0.8597 and 0.792 and 0.6967 and 0.6481 and 0.669 and 0.9606 and 0.6776 and 0.562
PF-EPSC amplitude relative to time 0 ([1]; time 17 min): 0.7633 and 0.6552 and 0.685 and 0.991 and 0.7793 and 0.8388 and 0.6612 and 0.7158 and 1.026 and 0.669 and 0.5661
PF-EPSC amplitude relative to time 0 ([1]; time 18 min): 0.7518 and 0.6433 and 0.6556 and 0.9807 and 0.8623 and 0.726 and 0.6303 and 0.6396 and 0.9248 and 0.6931 and 0.5685
PF-EPSC amplitude relative to time 0 ([1]; time 19 min): 0.7866 and 0.7223 and 0.6298 and 1.039 and 0.7923 and 0.7732 and 0.6413 and 0.6754 and 1.015 and 0.7024 and 0.4513
PF-EPSC amplitude relative to time 0 ([1]; time 20 min): 0.7361
chemLTD: normalized PF-EPSC amplitude ([2]; 1 μM Pd(sulfo-bpy), t = 31−35 min): 66 ± 5%
PF-EPSC amplitude normalized to time 0, individual Purkinje cells ([2]; Time 11 min): 0.7232 and 0.9829 and 0.3767 and 0.7388 and 0.7918 and 0.8459 and 0.9915
PF-EPSC amplitude normalized to time 0, mean of cells ([2]; Time 11 min): 0.7787
PF-EPSC amplitude normalized to time 0, individual Purkinje cells ([2]; Time 12 min): 0.6425 and 0.801 and 0.5915 and 0.6003 and 0.6904 and 0.8371 and 0.8565
PF-EPSC amplitude normalized to time 0, mean of cells ([2]; Time 12 min): 0.717
PF-EPSC amplitude normalized to time 0, individual Purkinje cells ([2]; Time 13 min): 0.6471 and 0.7787 and 0.7013 and 0.6809 and 0.7803 and 0.6727 and 0.8538
PF-EPSC amplitude normalized to time 0, mean of cells ([2]; Time 13 min): 0.7307
PF-EPSC amplitude normalized to time 0, individual Purkinje cells ([2]; Time 14 min): 0.6499 and 0.8303 and 0.7622 and 0.6113 and 0.7456 and 0.6953 and 0.8046
PF-EPSC amplitude normalized to time 0, mean of cells ([2]; Time 14 min): 0.7285
PF-EPSC amplitude normalized to time 0, individual Purkinje cells ([2]; Time 15 min): 0.6409 and 0.6767 and 0.8117 and 0.6223 and 0.7031 and 0.7146 and 0.8496
PF-EPSC amplitude normalized to time 0, mean of cells ([2]; Time 15 min): 0.717
PF-EPSC amplitude normalized to time 0, individual Purkinje cells ([2]; Time 16 min): 0.6376 and 0.7978 and 1.028 and 0.6558 and 0.8297 and 0.5765 and 0.8295
PF-EPSC amplitude normalized to time 0, mean of cells ([2]; Time 16 min): 0.765
PF-EPSC amplitude normalized to time 0, individual Purkinje cells ([2]; Time 17 min): 0.5747 and 0.6569 and 0.9755 and 0.6298 and 0.8796 and 0.5758 and 0.8309
PF-EPSC amplitude normalized to time 0, mean of cells ([2]; Time 17 min): 0.7319
PF-EPSC amplitude normalized to time 0, individual Purkinje cells ([2]; Time 18 min): 0.6181 and 0.7827 and 0.9415 and 0.633 and 0.8865 and 0.5391 and 0.791
PF-EPSC amplitude normalized to time 0, mean of cells ([2]; Time 18 min): 0.7417
PF-EPSC amplitude normalized to time 0, individual Purkinje cells ([2]; Time 19 min): 0.6525 and 0.7374 and 0.8732 and 0.5834 and 0.9022 and 0.5765 and 0.7947
PF-EPSC amplitude normalized to time 0, mean of cells ([2]; Time 19 min): 0.7314
PF-EPSC amplitude normalized to time 0, individual Purkinje cells ([2]; Time 20 min): 0.6393 and 0.699 and 0.8317 and 0.5962 and 0.9401 and 0.5543 and 0.7516
PF-EPSC amplitude normalized to time 0, mean of cells ([2]; Time 20 min): 0.716
PF-EPSC amplitude normalized to time 0, individual Purkinje cells ([2]; Time 21 min): 0.6574 and 0.7237 and 1.073 and 0.5004 and 0.9213 and 0.5453 and 0.8183
PF-EPSC amplitude normalized to time 0, mean of cells ([2]; Time 21 min): 0.7484
PF-EPSC amplitude normalized to time 0, individual Purkinje cells ([2]; Time 22 min): 0.698 and 0.6854 and 0.7706 and 0.5876 and 1.007 and 0.5965 and 0.7681
PF-EPSC amplitude normalized to time 0, mean of cells ([2]; Time 22 min): 0.7305
PF-EPSC amplitude normalized to time 0, individual Purkinje cells ([2]; Time 23 min): 0.6936 and 0.7382 and 0.9273 and 0.5926 and 0.9601 and 0.5241 and 0.7745
PF-EPSC amplitude normalized to time 0, mean of cells ([2]; Time 23 min): 0.7443
PF-EPSC amplitude normalized to time 0, individual Purkinje cells ([2]; Time 24 min): 0.6834 and 0.653 and 0.9054 and 0.6969 and 0.9426 and 0.569 and 0.7678
PF-EPSC amplitude normalized to time 0, mean of cells ([2]; Time 24 min): 0.7455
PF-EPSC amplitude normalized to time 0, individual Purkinje cells ([2]; Time 25 min): 0.6421 and 0.6906
PF-EPSC amplitude normalized to time 0, mean of cells ([2]; Time 25 min): 0.7344
PF-EPSC amplitude normalized to time 0, mean of cells ([2]; Time 26 min): 0.7041
PF-EPSC amplitude normalized to time 0, mean of cells ([2]; Time 27 min): 0.6979
PF-EPSC amplitude normalized to time 0, mean of cells ([2]; Time 28 min): 0.6908
PF-EPSC amplitude normalized to time 0, mean of cells ([2]; Time 29 min): 0.7115
PF-EPSC amplitude normalized to time 0, mean of cells ([2]; Time 30 min): 0.7
PF-EPSC amplitude normalized to time 0, mean of cells ([2]; Time 31 min): 0.6852
PF-EPSC amplitude normalized to time 0, mean of cells ([2]; Time 32 min): 0.6868
PF-EPSC amplitude normalized to time 0, mean of cells ([2]; Time 33 min): 0.6788
PF-EPSC amplitude normalized to time 0, mean of cells ([2]; Time 34 min): 0.6319
PF-EPSC amplitude normalized to time 0, mean of cells ([2]; Time 35 min): 0.6255
Firing rate of MLIs [3]: failed to increase
Solubility: concentration over which linearity of absorbance at 312 nm is observed [4]: over 1 mM
